From the supplement of paper PMC10307832 come the findings set out here.

Experiment in all cases: relative viability (nuclei count vs DMSO), 5 days (fraction); higher = more cells survive
Compound in assay [1]: C1CC(C2=C(C1)C3=C(N2)C=CC(=C3)Cl)C(=O)N [Selisistat] + CC1(C)CCC(c2ccc(Cl)cc2)=C(CN2CCN(c3ccc(C(=O)NS(=O)(=O)c4ccc(N[C@H](CCN5CCOCC5)CSc5ccccc5)c(S(=O)(=O)C(F)(F)F)c4)cc3)CC2)C1 [Navitoclax] (partner 0.5 µM)
The method in brief: (§1)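 Cells from lung cancer lines were seeded into 1536-well plates and, one day later, dosed by pin tool. Treatments were either a single drug or a fixed dose of an anchor drug with five library-drug doses (not always all listed) in √10 steps. After 5 days, nuclei were stained in a one-step fixation (final 0.05% Triton X-100, 1% formaldehyde, 1 ug/ml Hoechst) and counted on 4× images, and relative viability is the treated-to-vehicle nuclei ratio, as the median of duplicate plates.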

Compound in assay [2]: C1CC(C2=C(C1)C3=C(N2)C=CC(=C3)Cl)C(=O)N [Selisistat] + CS(=O)(=O)N1CCN(Cc2cc3nc(-c4cccc5[nH]ncc45)nc(N4CCOCC4)c3s2)CC1 [Pictilisib] (partner 1 µM)
The essentials:
as §1

Compound in assay [3]: C1CC(C2=C(C1)C3=C(N2)C=CC(=C3)Cl)C(=O)N [Selisistat] + O=C(c1cc(Cc2n[nH]c(=O)c3ccccc23)ccc1F)N1CCN(C(=O)C2CC2)CC1 [Olaparib] (partner 8 µM)
The essentials: as §1

Compound in assay [4]: c1ccc2c(CCNc3ccc(Nc4ccncc4)cc3)c[nH]c2c1 [Serdemetan] + Cc1nc(Nc2ncc(C(=O)Nc3c(C)cccc3Cl)s2)cc(N2CCN(CCO)CC2)n1 [Dasatinib] (partner 0.075 µM)
The method in brief:
as §1

Regarding UMC-11, the relative viability came to 0.296 in assay [1] (first compound 0.4 µM); 0.294 in assay [1] (first compound 1.265 µM); 0.276 in assay [1] (first compound 4 µM); 0.316 in assay [1] (first compound 12.65 µM); 0.332 in assay [1] (first compound 40 µM); 0.793 in assay [2] (first compound 0.4 µM). Moreover, the relative viability in assay [2] (first compound 1.265 µM) was 0.784; in assay [2] (first compound 4 µM), 0.618; in assay [2] (first compound 12.65 µM), 0.742; in assay [2] (first compound 40 µM), 0.809; in assay [3] (first compound 0.4 µM), 0.331; in assay [3] (first compound 1.265 µM) it was 0.356. In addition, the relative viability in assay [3] (first compound 4 µM) was determined as 0.271; in assay [3] (first compound 12.65 µM), 0.334; in assay [3] (first compound 40 µM), 0.353; in assay [4] (first compound 0.04 µM), 0.45; in assay [4] (first compound 0.1265 µM) it was 0.437; in assay [4] (first compound 4 µM), 0.351.
